Where two headings read alike, the source gives them in different places.
Legend:
[1] = system: giant foxtail; assay: Test B pre-/postemergence herbicide test; type: in vivo, Setaria faberi; conditions: for pest or weed control at 125 g/ha / pest or weed control at 500 g/ha: Setaria faberi, 336 h
How it was run: (§1)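 Pre: seeds sown, then sprayed. Post: 1–4-leaf plants (2–18 cm) sprayed at the same time. Paddy: flooded, treated at 2-leaf stage. Formulation: non-phytotoxic solvent with surfactant. Greenhouse 13–15 days; visual 0–100 score relative to controls.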

[2] = system: pigweed; assay: Test B pre-/postemergence herbicide test; type: in vivo, Amaranthus retroflexus; conditions: for pest or weed control at 125 g/ha / pest or weed control at 500 g/ha: Amaranthus retroflexus, 336 h
How it was run: as §1

[3] = system: Surinam grass; assay: Test C pre-/postemergence herbicide test; type: in vivo, Urochloa decumbens
How it was run: (§2)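 Visual injury scores run from 0 (no effect) to 100 (complete control), assessed relative to untreated controls 12 to 14 days after treatment in the greenhouse. Chemicals were formulated in a non-phytotoxic solvent mixture with surfactant and applied to soil after planting or to emerged plants at the 1- to 4-leaf stage.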

[4] = system: large crabgrass; assay: Test C pre-/postemergence herbicide test; type: in vivo, Digitaria sanguinalis
How it was run: as §2

[5] = system: goosegrass; assay: Test C pre-/postemergence herbicide test; type: in vivo, Eleusine indica
How it was run: as §2

[6] = system: kochia; assay: Test C pre-/postemergence herbicide test; type: in vivo, Kochia scoparia
How it was run: as §2

[7] = system: lambsquarters; assay: Test C pre-/postemergence herbicide test; type: in vivo, Chenopodium album
How it was run: as §2

[8] = system: common ragweed; assay: Test C pre-/postemergence herbicide test; type: in vivo, Ambrosia elatior; set-up: key to Plant response rating, Ragweed: 0 = no effect, 100 = complete control
How it was run: as §2

[9] = system: smallflower umbrella sedge; assay: Test C flooded paddy test; type: in vivo, Cyperus difformis
[10] = 125 g ai/ha, 0 = no effect, 100 = complete control, preemergence
[11] = 125 g ai/ha, visual rating, scale 0 (no effect) to 100 (complete control), postemergence
[12] = 500 g ai/ha, visual rating, 0 = no effect, 100 = complete control, preemergence
[13] = postemergence, 500 g ai/ha, scale 0 to 100, 0 is no effect, 100 is complete control
[14] = 62 g ai/ha, preemergence, scale 0 to 100
[15] = 250 g ai/ha, scale 0-100, preemergence
[16] = 500 g ai/ha, scale 0 to 100 (0 no effect, 100 complete control), visual, 12 to 14 days, preemergence
[17] = 125 g ai/ha, scale 0 (no effect) to 100 (complete control), visual, 12 to 14 days, preemergence

CCc1nn(C(C)(C)C)cc1C(=O)Nc1cc(C(=O)N(C)C)ccc1F [Compound 222, N-[5-[(dimethylamino)carbonyl]-2-fluorophenyl]-1-(1,1-dimethylethyl)-3-ethyl-1H-pyrazole-4-carboxamide]
90%: pest or weed control at 500 g/ha ([1]; pre-emergence, 500 g ai/ha, visual rating, 0 = no effect, 100 = complete control, read-out: Plant response rating, Foxtail, Giant) | pest or weed control at 125 g/ha ([2]; pre-emergence, 125 g ai/ha, 0 = no effect, 100 = complete control, read-out: Pigweed plant response rating (0 to 100 scale)) | pest or weed control at 62 g/ha ([6]; Bassia scoparia, pre-emergence, 62 g ai/ha, preemergence, scale 0 to 100, read-out: Plant response rating, Kochia) | pest or weed control at 500 g/ha ([9]; Cyperus difformis, 500 g ai/ha, visual rating after 12 to 14 days, scale 0 to 100 (0 no effect, 100 complete control), read-out: Plant response rating, Sedge, Umbrella)
65%: pest or weed control at 62 g/ha ([9]; Cyperus difformis, 62 g ai/ha, scale 0 to 100 (0 no effect, 100 complete control), read-out: Sedge, Umbrella plant response rating)
30%: pest or weed control at 500 g/ha ([1]; post-emergence, postemergence, 500 g ai/ha, visual rating, scale 0 (no effect) to 100 (complete control), read-out: Foxtail, Giant plant response rating)
75%: pest or weed control at 125 g/ha ([9]; Cyperus difformis, 125 g ai/ha, scale 0 to 100 (0 no effect, 100 complete control), read-out: Sedge, Umbrella plant response rating)
10%: pest or weed control at 125 g/ha ([1]; post-emergence, postemergence, 125 g ai/ha, visual rating, scale 0 (no effect) to 100 (complete control), read-out: Foxtail, Giant plant response rating)
100%: pest or weed control at 500 g/ha ([2]; pre-emergence, 500 g ai/ha, visual rating, 0 = no effect, 100 = complete control, read-out: Plant response rating, Pigweed) | pest or weed control at 250 g/ha ([3]; Urochloa decumbens, pre-emergence, 312 h, 250 g ai/ha, scale 0-100, read-out: Plant response rating, Surinam Grass) | pest or weed control at 500 g/ha ([3]; Urochloa decumbens, pre-emergence, 312 h, 500 g ai/ha, scale 0 to 100 (0 no effect, 100 complete control), visual, 12 to 14 days, read-out: Plant response rating, Surinam Grass) | pest or weed control at 62 g/ha ([4]; Digitaria sanguinalis, pre-emergence, 312 h, 62 g ai/ha, preemergence, scale 0 to 100, read-out: Plant response rating, Crabgrass, Large) | pest or weed control at 125 g/ha ([4]; Digitaria sanguinalis, pre-emergence, 312 h, 125 g ai/ha, scale 0 (no effect) to 100 (complete control), visual, 12 to 14 days, read-out: Plant response rating, Crabgrass, Large) | pest or weed control at 250 g/ha ([4]; Digitaria sanguinalis, pre-emergence, 312 h, 250 g ai/ha, scale 0-100, read-out: Plant response rating, Crabgrass, Large) | pest or weed control at 500 g/ha ([4]; Digitaria sanguinalis, pre-emergence, 312 h, 500 g ai/ha, scale 0 to 100 (0 no effect, 100 complete control), visual, 12 to 14 days, read-out: Plant response rating, Crabgrass, Large) | pest or weed control at 125 g/ha ([5]; Eleusine indica, pre-emergence, 312 h, 125 g ai/ha, scale 0 (no effect) to 100 (complete control), visual, 12 to 14 days, read-out: Plant response rating, Goosegrass) | pest or weed control at 250 g/ha ([5]; Eleusine indica, pre-emergence, 312 h, 250 g ai/ha, scale 0-100, read-out: Plant response rating, Goosegrass) | pest or weed control at 500 g/ha ([5]; Eleusine indica, pre-emergence, 312 h, 500 g ai/ha, scale 0 to 100 (0 no effect, 100 complete control), visual, 12 to 14 days, read-out: Plant response rating, Goosegrass) | pest or weed control at 125 g/ha ([6]; Bassia scoparia, pre-emergence, 125 g ai/ha, scale 0 (no effect) to 100 (complete control), visual, 12 to 14 days, read-out: Plant response rating, Kochia) | pest or weed control at 250 g/ha ([6]; Bassia scoparia, pre-emergence, 250 g ai/ha, scale 0-100, read-out: Plant response rating, Kochia) | pest or weed control at 500 g/ha ([6]; Bassia scoparia, pre-emergence, 500 g ai/ha, scale 0 to 100 (0 no effect, 100 complete control), visual, 12 to 14 days, read-out: Plant response rating, Kochia) | pest or weed control at 62 g/ha ([7]; Chenopodium album, pre-emergence, 62 g ai/ha, preemergence, scale 0 to 100, read-out: Plant response rating, Lambsquarters) | pest or weed control at 125 g/ha ([7]; Chenopodium album, pre-emergence, 125 g ai/ha, scale 0 (no effect) to 100 (complete control), visual, 12 to 14 days, read-out: Plant response rating, Lambsquarters) | pest or weed control at 250 g/ha ([7]; Chenopodium album, pre-emergence, 250 g ai/ha, scale 0-100, read-out: Plant response rating, Lambsquarters) | pest or weed control at 500 g/ha ([7]; Chenopodium album, pre-emergence, 500 g ai/ha, scale 0 to 100 (0 no effect, 100 complete control), visual, 12 to 14 days, read-out: Plant response rating, Lambsquarters) | pest or weed control at 250 g/ha ([8]; Ambrosia artemisiifolia, pre-emergence, 250 g ai/ha, scale 0-100, read-out: Plant response rating, Ragweed) | pest or weed control at 500 g/ha ([8]; Ambrosia artemisiifolia, pre-emergence, 500 g ai/ha, scale 0 to 100 (0 no effect, 100 complete control), visual, 12 to 14 days, read-out: Plant response rating, Ragweed)
60%: pest or weed control at 125 g/ha ([1]; pre-emergence, 125 g ai/ha, 0 = no effect, 100 = complete control, read-out: Foxtail, Giant plant response rating (0 to 100 scale)) | pest or weed control at 500 g/ha ([2]; post-emergence, postemergence, 500 g ai/ha, visual rating, scale 0 (no effect) to 100 (complete control), read-out: Pigweed plant response rating)
40%: pest or weed control at 125 g/ha ([2]; post-emergence, postemergence, 125 g ai/ha, visual rating, scale 0 (no effect) to 100 (complete control), read-out: Pigweed plant response rating)
80%: pest or weed control at 62 g/ha ([3]; Urochloa decumbens, pre-emergence, 312 h, 62 g ai/ha, preemergence, scale 0 to 100, read-out: Plant response rating, Surinam Grass) | pest or weed control at 62 g/ha ([5]; Eleusine indica, pre-emergence, 312 h, 62 g ai/ha, preemergence, scale 0 to 100, read-out: Plant response rating, Goosegrass) | pest or weed control at 62 g/ha ([8]; Ambrosia artemisiifolia, pre-emergence, 62 g ai/ha, preemergence, scale 0 to 100, read-out: Plant response rating, Ragweed)
85%: pest or weed control at 250 g/ha ([9]; Cyperus difformis, 250 g ai/ha, scale of 0 to 100, 0 is no effect, 100 is complete control, read-out: Sedge, Umbrella plant response rating)

CCN1N=C(C(C)(C)C)CC1C(=O)Nc1cc(C(=O)N2CC=CC2)ccc1F (racemic) [Compound 310]
80: Pigweed plant response rating (0 to 100 scale) [2, 10] | Plant response rating, Goosegrass [5, 17] | Plant response rating, Ragweed [8, 16]
100: Plant response rating, Foxtail, Giant [1, 12] | Plant response rating, Pigweed [2, 12] | Plant response rating, Crabgrass, Large [4, 15] | Plant response rating, Crabgrass, Large [4, 16] | Plant response rating, Kochia [6, 17] | Plant response rating, Kochia [6, 15] | Plant response rating, Kochia [6, 16] | Plant response rating, Lambsquarters [7, 17] | Plant response rating, Lambsquarters [7, 15] | Plant response rating, Lambsquarters [7, 16]
40: Foxtail, Giant plant response rating [1, 13]
95: Plant response rating, Goosegrass [5, 15] | Plant response rating, Goosegrass [5, 16] | Plant response rating, Kochia [6, 14] | Plant response rating, Lambsquarters [7, 14]
5: Plant response rating, Surinam Grass [3, 14]
50: Foxtail, Giant plant response rating (0 to 100 scale) [1, 10] | Pigweed plant response rating [2, 11] | Plant response rating, Surinam Grass [3, 16] | Plant response rating, Ragweed [8, 15]
30: Plant response rating, Surinam Grass [3, 15] | Plant response rating, Crabgrass, Large [4, 14]
35: Sedge, Umbrella plant response rating ([9]; 62 g ai/ha, scale 0 to 100)
85: Sedge, Umbrella plant response rating ([9]; 125 g ai/ha, scale 0 to 100 (0 no effect, 100 complete control)) | Sedge, Umbrella plant response rating ([9]; 250 g ai/ha, scale of 0 to 100, 0 is no effect, 100 is complete control) | Plant response rating, Sedge, Umbrella ([9]; 500 g ai/ha, visual rating after 12 to 14 days, scale 0 to 100 (0 no effect, 100 complete control))
10: Foxtail, Giant plant response rating [1, 11]
0: Plant response rating, Ragweed [8, 14]
70: Pigweed plant response rating [2, 13] | Plant response rating, Crabgrass, Large [4, 17] | Plant response rating, Goosegrass [5, 14]

Source: patent publication US20060069132A1, “Azolecarboxamide herbicides” (priority 2004, published 2006)
